Our source for the Observed efficacy values is patent US9763448B2, “Fungicidal mixtures I comprising strobilurin-type fungicides” (BASF SE, priority 2013, dated 2017).

Common to all, as to assay type: cell-based
The test system of one experiment is Pyricularia oryzae. The conditions noted are these: single compound, 7 days after inoculation, 18° C.
Another experiment deals with Phytophthora infestans. The conditions noted are these: 0.063 ppm, single compound; 7 days after inoculation, 18° C.
The subject of the next experiment is Leptosphaeria nodorum. The experiment can be described thus: Microtest: activity against the wheat leaf spot pathogen Leptosphaeria nodorum (MTP, absorption at 405 nm). The conditions noted are these: 0.004 ppm, single compound; 7 days after inoculation, 18° C.

Like-named read-outs stand apart in the source and are kept apart here.

`CNC(=O)C(=N/OC)/C(C)=C\COc1ccn(-c2ccc(Cl)cc2F)n1` [I-13, (Z,2E)-5-[1-(4-chloro-2-fluoro-phenyl)pyrazol-3-yl]oxy-2-methoxyimino-N,3-dimethyl-pent-3-enamide]: the Observed efficacy with Pyricularia oryzae (0.00025 ppm) is recorded as 7%; with Phytophthora infestans it was 4%; in the experiment with Leptosphaeria nodorum, 21%.

Take `OC(Cn1cncn1)(c1ccc(Oc2ccc(Cl)cc2)cc1C(F)(F)F)C1CC1` (stereo not drawn) [II-2, 1-[4-(4-chlorophenoxy)-2-(trifluoromethyl)phenyl]-1-cyclopropyl-2-(1,2,4-triazol-1-yl)ethanol]: the Observed efficacy in the experiment with Pyricularia oryzae (0.016 ppm) worked out at 6%.

In the case of `CC(O)(Cn1cncn1)c1ccc(Oc2ccc(Cl)cc2)cc1C(F)(F)F` (stereo not drawn) [II-6, 2-[4-(4-chlorophenoxy)-2-(trifluoromethyl)phenyl]-1-(1,2,4-triazol-1-yl)propan-2-ol], the Observed efficacy in the experiment on Phytophthora infestans and with Leptosphaeria nodorum was 7% each time.
